# From US5036097A, “Phenylbutyl nitrone compositions and methods for prevention of gastric ulceration” (Oklahoma Medical Research Foundation, priority 1990, dated 1991)
# “Also recorded” adds a separate entry of the source.
# Columns and labels:
# [1] = test system: Xanthine dehydrogenase (XDH) and oxidase (XO); assay: gastric xanthine dehydrogenase and oxidase activity; format: in vivo, rat; conditions: whole stomach, piroxicam treated
# Protocol: MEASUREMENT OF GASTRIC XANTHINE OXIDASE ACTIVITY. Xanthine dehydrogenase (XDH) and oxidase (XO) activities are measured in whole stomach from piroxicam-treated and vehicle-treated rats, using methods reported by Parks, et. al. […]. 254 (Gastrointest Liver Physiol 17): […]-[…] (1988). The artifactual conversion of XDH to XO is minimized by quickly removing stomachs from rats that were anesthetized with 50 mg/kg sodium pentobarbital and still breathing spontaneously. After gastrectomy, the rats are euthanized by cutting the abdominal aorta. Stomachs are quickly rinsed in an ice cold homogenizing buffer consisting of 50 mM potassium phosphate buffer, pH 7.0, containing 10 mM dithiothreitol (DTT), 1 mM phenylmethylsulfonyl fluoride (PMSF) and 0.1 mM EDTA. The stomach is then immediately immersed in liquid nitrogen and ground to a fine powder under liquid nitrogen using a mortar and pestle. About 0.5 g of frozen powder is added to 5 ml of homogenizing buffer and centrifuged 40,000 g for 30 min. The supernatant is decanted and microfuged for an additional 10 min. […] To increase reaction rates activity was measured at 30 rather than 25° C. […] XO is assayed in the absence in NAD+, while XDH+XO activity is measured in the presence of 500 μM NAD+. […] The extent of XDH conversion (% XO) is calculated from XO activity divided by XDH+XO activity.
# gastric ulceration = assay: NSAID-induced gastric ulceration in rats (surface area of ulceration); format: in vivo, rat (male Sprague-Dawley); conditions: 4 h
# Protocol: Male Sprague-Dawley rats (Charles River, Wilmington, Mass.) weighing 300-325 g were housed individually in wire bottomed cages to prevent ingestion of hair and feces. […] Piroxicam or aspirin and other NSAIDS were suspended in a vehicle of 1% carboxymethylcellulose, 0.1% Tween 80 and 0.15 M HCl, and administered in a volume of 1 ml on the morning of study by oral gavage using an 18 gauge curved blunt needle (Popper and Sons, New Hyde Park, N.Y.). One ml of vehicle alone was administered for control experiments. HCl was added to the vehicle to insure an acid environment in the stomach in all studies. […] Four hours after the administration of NSAID or vehicle, rats were euthanized with sodium pentobarbital (100 mg/kg IP), and the surface area of ulceration per stomach was quantitated using morphometric techniques. Stomachs were removed, the lumen was exposed by an incision along the radius of greater curvature, and the stomach was washed in phosphate buffered saline. The luminal surface was laid out on a flat surface with gross folds removed by gentle distension. The percentage of surface involved with submucosal hemorrhage was then determined by point counting, as described by Weibel, E. R. Stereological Methods: Practical Methods for Biological Morphometry. […] This was done by tabulation of the percentage of points over ulcerations using a point counting eyepiece graticle (16×16 points in a square format). At the 12X magnification used on the Wild dissecting microscope (Wild-Heerbrugg, Basel, Switzerland), the graticle covered a 1 cm^2 area of the surface. Four to five non-overlapping sampling sites were taken to fully cover the exposed surface. To determine the total luminal surface area, the outline of the outer boundary of the stomach was traced using a transparent acetate sheet, and the area was determined from planimetry. The surface area of ulcerated regions per stomach was then determined by multiplying the surface density of ulceration regions by the luminal surface area of the stomach.
# Differences in total luminal surface area in cm^2, surface area of ulcerated regions per stomach and biochemical analyses between each treatment intervention and its corresponding untreated control group are compared using the Mann-Whitney U Test, Dixon, W. J., Massey, F. J., Jr. Introduction to statistical methods, 4th edition. […] In vitro studies are compared using the Student's unpaired T-test, Dixon, W. J., Massey, F. J., Jr. Introduction to statistical methods, 4th edition. […] Values are expressed as mean±SEM. Significance is assumed when P<0.05.
# Phenyl N-tert-butyl nitrone is obtained from Aldrich Chemicals, Milwaukee, Wis. All other chemicals and pharmaceuticals are from Sigma Chemical.
smiles,measurement,setting,value
CN1C(C(=O)Nc2ccccn2)=C(O)c2ccccc2S1(=O)=O [piroxicam],XO as % of total XDH+XO activity,[1],45±3%
same,total XDH+XO activity,[1]; vehicle 31.6±2.45 mU/g,30.5±1.6 mU/g
same,"gastric ulceration, in words","gastric ulceration; oral gavage, 23 mg/kg piroxicam, vs vehicle, 23 mg/kg",prominent ulceration along the ridges of gastric rugae; also recorded: consistently produced ulceration; also recorded: profound gastric ulceration
same,mean ulceration in piroxicam-treated control stomachs,"gastric ulceration; piroxicam 23 mg/kg p.o., absence of an intervention",0.215 cm^2
